Experimental data as given in patent US8546343B2, “Aminoglycoside antibiotics targeting bacterial 16S ribosomal RNA” (Eidgenoessische Technische Hochschule Zurich, priority 2007, dated 2013).
Converted amounts (≈) assume the structure as drawn.

Tests used:
[1] = tested on: AG009 E. coli BM13 AAC(6′)-1B; assay: Standard MIC assay, AG009; assay type: cell-based, Escherichia coli
Experimental: (§1) Selected compounds of the present invention were tested for antibiotic susceptibility using clinical isolates of Staphylococci, Enterococci and Escherichia coli as well as strains carrying defined resistance determinants and compared to well known antibiotics of the state of the art. Drug susceptibility was determined in standard MIC assays, i.e. by determination of the minimal drug concentration required to inhibit bacterial growth in vitro.

[2] = tested on: AG011 Staph. aureus clinical isolate; assay: Standard MIC assay, AG011; assay type: cell-based, Staphylococcus aureus
Experimental: as §1

[3] = tested on: AG006 E. coli BM13; assay: Standard MIC assay, AG006; assay type: cell-based, Escherichia coli
Experimental: as §1

[4] = tested on: AG004 E. coli clinical isolate; assay: Standard MIC assay, AG004; assay type: cell-based, Escherichia coli
Experimental: as §1

[5] = tested on: M. smegmatis ΔrrnB (bacterial ribosomes); assay: MIC, recombinant M. smegmatis with bacterial (wild-type) ribosomes; assay type: cell-based, Mycobacterium smegmatis; conditions: 72 h at 37° C.
Summary of the method: (§2)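 M. smegmatis single-rRNA-operon strain carrying the indicated 16S rRNA decoding-site alleles, introduced into the chromosomal operon and confirmed by sequencing. Colony-purified cultures were grown in LB with 0.05% Tween 80 and started at OD600 0.025. MIC was read in microtiter format against twofold drug dilutions.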

[6] = tested on: AG014 Staph. epi. clinical isolate; assay: Standard MIC assay, AG014; assay type: cell-based, Staphylococcus epidermidis
Experimental: as §1

[7] = tested on: AG017 E. faecalis JH2-2; assay: Standard MIC assay, AG017; assay type: cell-based, Enterococcus faecalis
Experimental: as §1

[8] = tested on: AG002 E. coli clinical isolate; assay: Standard MIC assay, AG002; assay type: cell-based, Escherichia coli
Experimental: as §1

[9] = tested on: AG015 S. aureus BM3002 (ANT4′); assay: Standard MIC assay, AG015; assay type: cell-based, Staphylococcus aureus
Experimental: as §1

[10] = tested on: AG013 Staph. epi. clinical isolate; assay: Standard MIC assay, AG013; assay type: cell-based, Staphylococcus epidermidis
Experimental: as §1

[11] = tested on: M. smegmatis ΔrrnB 1491A (16S rRNA position 1491 A, eukaryotic cytosolic ribosomes); assay: MIC, recombinant M. smegmatis with mutant ribosomes 1491A; assay type: cell-based, Mycobacterium smegmatis; conditions: M. smegmatis ΔrrnB 1491A mutant ribosomes; 72 h at 37° C.
Summary of the method: as §2

[12] = tested on: AG016 S. aureus BM3002; assay: Standard MIC assay, AG016; assay type: cell-based, Staphylococcus aureus
Experimental: as §1

[13] = tested on: AG019 E. faecalis JH2-2 (APH2″ AAC6′); assay: Standard MIC assay, AG019; assay type: cell-based, Enterococcus faecalis
Experimental: as §1

[14] = tested on: M. smegmatis ΔrrnB 1491C (16S rRNA position 1491 C, eukaryotic mitochondrial ribosome); assay: MIC, recombinant M. smegmatis with mutant ribosomes 1491C; assay type: cell-based, Mycobacterium smegmatis; conditions: M. smegmatis ΔrrnB 1491C mutant ribosomes; 72 h at 37° C.
Summary of the method: as §2

[15] = tested on: AG001 E. coli clinical isolate; assay: Standard MIC assay, AG001; assay type: cell-based, Escherichia coli
Experimental: as §1

[16] = tested on: AG008 E. coli BM13 (ANT2″); assay: Standard MIC assay, AG008; assay type: cell-based, Escherichia coli
Experimental: as §1

[17] = tested on: M. smegmatis ΔrrnB 1408G (16S rRNA position 1408 G, eukaryotic cytosolic ribosomes); assay: MIC, recombinant M. smegmatis with mutant ribosomes 1408G; assay type: cell-based, Mycobacterium smegmatis; conditions: M. smegmatis ΔrrnB 1408G mutant ribosomes; 72 h at 37° C.
Summary of the method: as §2

[18] = tested on: AG003 E. coli clinical isolate; assay: Standard MIC assay, AG003; assay type: cell-based, Escherichia coli
Experimental: as §1

[19] = tested on: AG007 E. coli BM13 (AAC3); assay: Standard MIC assay, AG007; assay type: cell-based, Escherichia coli
Experimental: as §1

SMILES: NCC1OC(OC2C(CO)OC(OC3C(O)C(N)CC(N)C3OC3OC(CO)C(OCc4ccccc4)C(O)C3N)C2O)C(N)C(O)C1O (centres unmarked) [Compound 11, 4′-O-Benzylparomomycin]
- MIC ([1]; Escherichia coli, read-out: Minimal inhibitory concentrations AG009): 64 to 128 µg/mL (≈ 90.7 to 181 µM)
- MIC ([2]; Staphylococcus aureus, read-out: Minimal inhibitory concentrations AG011): 8 µg/mL (≈ 11.3 µM)
- MIC ([3]; Escherichia coli, read-out: Minimal inhibitory concentrations AG006): 32 µg/mL (≈ 45.3 µM)
- MIC ([4]; Escherichia coli, read-out: Minimal inhibitory concentrations AG004): 64 µg/mL (≈ 90.7 µM)
- minimal inhibitory concentrations ΔrrnB [5]: 4 µg/mL
- MIC ([6]; Staphylococcus epidermidis, read-out: Minimal inhibitory concentrations AG014): 8 µg/mL (≈ 11.3 µM)
- MIC ([7]; Enterococcus faecalis, read-out: Minimal inhibitory concentrations AG017): 32 to 64 µg/mL (≈ 45.3 to 90.7 µM)
- MIC ([8]; Escherichia coli, read-out: Minimal inhibitory concentrations AG002): 32 to 64 µg/mL (≈ 45.3 to 90.7 µM)
- MIC ([9]; Staphylococcus aureus, read-out: Minimal inhibitory concentrations AG015): 32 µg/mL (≈ 45.3 µM)
- MIC ([10]; Staphylococcus epidermidis, read-out: Minimal inhibitory concentrations AG013): 16 µg/mL (≈ 22.7 µM)
- minimal inhibitory concentrations ΔrrnB 1491A [11]: ≧512 μg/ml
- MIC ([12]; Staphylococcus aureus, read-out: Minimal inhibitory concentrations AG016): 16 to 32 µg/mL (≈ 22.7 to 45.3 µM)
- MIC ([13]; Enterococcus faecalis, read-out: Minimal inhibitory concentrations AG019): > 256 µg/mL
- minimal inhibitory concentrations ΔrrnB 1491C [14]: >512 µg/mL
- MIC ([15]; Escherichia coli, read-out: Minimal inhibitory concentrations AG001): 64 µg/mL (≈ 90.7 µM)
- MIC ([16]; Escherichia coli, read-out: Minimal inhibitory concentrations AG008): 64 to 128 µg/mL (≈ 90.7 to 181 µM)
- minimal inhibitory concentrations ΔrrnB 1408G [17]: >512 µg/mL
- MIC ([18]; Escherichia coli, read-out: Minimal inhibitory concentrations AG003): 32 to 64 µg/mL (≈ 45.3 to 90.7 µM)
- MIC ([19]; Escherichia coli, read-out: Minimal inhibitory concentrations AG007): 32 µg/mL (≈ 45.3 µM)

SMILES: NC[C@@H]1O[C@H](O[C@H]2[C@@H](O)[C@H](O[C@@H]3[C@@H](O)[C@H](N)C[C@H](N)[C@H]3O[C@H]3O[C@H](CO)[C@@H](OCc4ccc(Cl)cc4)[C@H](O)[C@H]3N)O[C@@H]2CO)[C@H](N)[C@@H](O)[C@@H]1O [Compound 19a, 4′-p-chlorobenzylparomomycin]
- Minimal inhibitory concentrations AG009 ([1]; E. coli BM13 AAC(6′)-1B): 32 µg/mL (≈ 43.2 µM)
- Minimal inhibitory concentrations AG011 [2]: 2 µg/mL (≈ 2.7 µM)
- Minimal inhibitory concentrations AG006 [3]: 8 to 16 µg/mL
- Minimal inhibitory concentrations AG004 [4]: 8 to 16 µg/mL
- minimal inhibitory concentrations ΔrrnB [5]: 2 µg/mL
- Minimal inhibitory concentrations AG014 [6]: 2 µg/mL (≈ 2.7 µM)
- Minimal inhibitory concentrations AG017 [7]: 8 to 16 µg/mL
- Minimal inhibitory concentrations AG002 [8]: 16 µg/mL (≈ 21.6 µM)
- Minimal inhibitory concentrations AG015 ([9]; S. aureus BM3002 (ANT4′)): 8 to 16 µg/mL
- Minimal inhibitory concentrations AG013 [10]: 4 µg/mL (≈ 5.4 µM)
- minimal inhibitory concentrations ΔrrnB 1491A [11]: ≧512 μg/ml
- Minimal inhibitory concentrations AG016 [12]: 4 µg/mL (≈ 5.4 µM)
- Minimal inhibitory concentrations AG019 ([13]; E. faecalis JH2-2 (APH2″ AAC6′)): 32 to 64 µg/mL
- minimal inhibitory concentrations ΔrrnB 1491C [14]: >512 µg/mL
- Minimal inhibitory concentrations AG001 [15]: 8 to 16 µg/mL
- Minimal inhibitory concentrations AG008 ([16]; E. coli BM13 (ANT2″)): 8 to 16 µg/mL
- minimal inhibitory concentrations ΔrrnB 1408G [17]: ≧512 μg/ml
- Minimal inhibitory concentrations AG003 [18]: 8 to 16 µg/mL
- Minimal inhibitory concentrations AG007 ([19]; E. coli BM13 (AAC3)): 8 to 16 µg/mL
